Assay results as given in ChEMBL document CHEMBL1201862, “PubChem BioAssay data set” (2004).
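Test compounds were applied to cells in 96-well plates for 48 hours at 5 doses. Here, GI50 denotes the concentration required for 50% inhibition of growth.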 The source made the active and inactive calls. Cut-off read from the data, not from the text of the source: active = GI50 up to about 1.1 µM and inactive = higher.

Legend:
Assay in all cases: NCI anticancer screen, dose series, 48 h
[1] = tested on: OVCAR-8
[2] = tested on: HOP-62
[3] = tested on: SK-MEL-28
[4] = tested on: DMS-114
[5] = tested on: HCT-116
[6] = tested on: SK-OV-3
[7] = tested on: SF-268
[8] = tested on: K562
[9] = tested on: NCI-H460
[10] = tested on: CCRF-CEM
[11] = tested on: UACC-62
[12] = tested on: SW-620
[13] = tested on: MOLT-4
[14] = tested on: 786-0
[15] = tested on: SN12C
[16] = tested on: SF-295
[17] = tested on: U-251
[18] = tested on: SR
[19] = tested on: TK-10
[20] = tested on: PC-3

Measured: GI50

CC(C)CCC[C@@H](C)C1CCC2[C@@H]3CC=C4C[C@@H](OC(=O)CCC(=O)NCC[N+](C)(C)CCCS(=O)(=O)[O-])CC[C@]4(C)C3CC[C@@]21C (stereo not given in full)
inactive: [1] 18.6 µM | [2] 17.6 µM | [3] 17.8 µM | [4] 20.6 µM | [5] 23.1 µM | [6] > 100 µM | [7] 19.3 µM | [8] 18.9 µM | [9] 15.2 µM | [10] 23.5 µM | [11] 26.3 µM | [12] 17.7 µM | [13] 19.1 µM | [14] 25.8 µM | [15] 19.5 µM | [16] 17 µM | [17] 18.3 µM

O=C(Nn1c(-c2ccccc2)nc2ccccc2c1=O)c1ccc(CS)cc1
inactive: [1] 57.1 µM | [18] 19.5 µM | [2] > 100 µM | [3] 69.8 µM | [19] > 100 µM | [5] 39.4 µM | [6] 82.8 µM | [7] 26.2 µM | [8] 38.2 µM | [9] > 100 µM | [10] 5.89 µM | [20] 20.2 µM | [11] 27.7 µM | [12] 31.1 µM | [13] 16.6 µM | [14] 24.4 µM | [15] 36.6 µM | [16] > 100 µM | [17] 27.6 µM

COC1(OC)CCC2C1C1CCC(OC)(OC)C21 (stereo not given)
inactive: [1] > 50 µM | [2] > 50 µM | [3] > 50 µM | [4] > 50 µM | [5] > 50 µM | [6] > 50 µM | [7] > 50 µM | [8] > 50 µM | [10] > 50 µM | [11] > 50 µM | [12] > 50 µM | [13] > 50 µM | [14] > 50 µM | [15] > 50 µM | [16] > 50 µM | [17] > 50 µM

O=C(/C=C/c1ccc(OCc2ccccc2)cc1)NCc1ccc(C(=O)NCc2ccccc2)cc1
inactive: [1] > 100 µM | [18] > 100 µM | [2] > 100 µM | [3] > 100 µM | [19] > 100 µM | [5] > 100 µM | [6] > 100 µM | [7] > 100 µM | [8] > 100 µM | [9] > 100 µM | [10] > 100 µM | [20] > 100 µM | [11] > 100 µM | [12] > 100 µM | [13] > 100 µM | [14] > 100 µM | [15] > 100 µM | [16] > 100 µM | [17] > 100 µM

COC(=O)C1=C(C(=O)OC)C2(C)Nc3ccccc3C2=C(c2ccccc2)C1 (stereo not given)
inactive: [1] 25 µM | [2] 22.4 µM | [3] 19.8 µM | [4] 18.3 µM | [19] 26.6 µM | [5] 19 µM | [7] 19.1 µM | [8] 16.1 µM | [9] 19.4 µM | [10] 19.4 µM | [11] 16.7 µM | [12] 26.5 µM | [13] 11.9 µM | [14] 22.5 µM | [15] 23.7 µM | [16] 23.2 µM | [17] 19.8 µM

O=c1cc(-c2ccccc2)oc2cc(OCC(O)COc3ccc4c(=O)cc(-c5ccccc5)oc4c3)ccc12
inactive: [1] 19.1 µM | [2] 8.43 µM | [3] > 100 µM | [4] > 100 µM | [19] 42.4 µM | [5] 42.5 µM | [6] 16.8 µM | [7] 14.6 µM | [8] 42.8 µM | [9] 40.3 µM | [10] 33 µM | [11] > 100 µM | [12] 61.2 µM | [13] 40.2 µM | [14] 17.4 µM | [16] 38.4 µM | [17] 20.8 µM

O=C(OC1CC(n2cc(F)c(=O)[nH]c2=O)OC1CSC(=O)c1ccccc1)c1ccccc1 (stereo not given)
inactive: [1] 34.8 µM | [2] 51.3 µM | [3] 48 µM | [4] 37.3 µM | [19] > 100 µM | [5] 34.8 µM | [6] > 100 µM | [7] 25.4 µM | [8] 54.3 µM | [9] 35.3 µM | [10] 37.2 µM | [11] 36.4 µM | [12] 30.8 µM | [13] 25.7 µM | [14] 32.1 µM | [15] 28.1 µM | [16] 33.7 µM | [17] 17.6 µM

OC[C@H]1C[C@@H]2Cc3ccccc3N2N1
inactive: [1] > 100 µM | [18] > 100 µM | [2] > 100 µM | [3] > 100 µM | [19] > 100 µM | [5] > 100 µM | [6] > 100 µM | [7] > 100 µM | [8] > 100 µM | [9] > 100 µM | [10] > 100 µM | [20] > 100 µM | [11] > 100 µM | [12] > 100 µM | [13] > 100 µM | [14] > 100 µM | [15] > 100 µM | [16] > 100 µM | [17] > 100 µM

CCCCN(CCCC)C(=O)C(=O)CC(=O)c1ccc(Br)cc1
inactive: [1] > 100 µM | [2] > 100 µM | [4] > 100 µM | [19] > 100 µM | [5] > 100 µM | [6] > 100 µM | [7] > 100 µM | [8] > 100 µM | [9] > 100 µM | [10] > 100 µM | [11] > 100 µM | [12] > 100 µM | [13] > 100 µM | [14] > 100 µM | [15] > 100 µM | [16] > 100 µM | [17] > 100 µM

N#C/C(=C\c1cc(O)cc(O)c1)C(N)=O
inactive: [1] > 100 µM | [2] > 100 µM | [3] > 100 µM | [4] > 100 µM | [19] > 100 µM | [5] > 100 µM | [6] > 100 µM | [7] > 100 µM | [8] > 100 µM | [9] > 100 µM | [10] > 100 µM | [11] > 100 µM | [12] > 100 µM | [13] > 100 µM | [14] > 100 µM | [15] > 100 µM | [16] > 100 µM | [17] > 100 µM

C[N+](C)(C)CCC(=O)CC[N+](C)(C)C
inactive: [1] 19.8 µM | [2] > 100 µM | [3] 21.6 µM | [4] 20.8 µM | [19] 17 µM | [5] 18.4 µM | [6] > 100 µM | [7] 22.1 µM | [8] 6.68 µM | [9] 28.2 µM | [10] 2.49 µM | [11] 21.5 µM | [12] 16.1 µM | [13] 4.14 µM | [14] 18.9 µM | [15] > 10 µM | [16] 18.7 µM | [17] > 100 µM
